Data from PubChem BioAssay AID540269 (Sanford-Burnham Center for Chemical Genomics, 2011).
The source made the active and inactive calls. No rule for the calls is given here.

The molecules below were run against glucose-6-phosphate dehydrogenase-6-phosphogluconolactonase (Plasmodium falciparum 3D7) (assay: PfG6PD enzyme inhibitors, kinetic NADPH readout, dose response, orthogonal assay, biochemical, kinetic NADPH detection (AID 540269)). Settings: purified PfG6PD-6PGL.
`COc1ccc(N2CSC3=C(C#N)C(c4cc(OC)c(OC)cc4OC)CC(=O)N3C2)c(OC)c1` (centres undefined) was tested, and the IC50 was > 80 µM (inactive). `O=c1c2ccccc2sn1-c1ccccc1` was tested, and the IC50 was 9.73 µM. With `COc1ccc(CCn2c(NN=C3CCCC3)nc3c2c(=O)[nH]c(=O)n3C)cc1` the IC50 was > 80 µM (inactive). `Cn1c2ccccc2c2ccc3c(c21)C(=O)C=CC3=O` gave an IC50 of 1.8 µM. Molecule `Cc1ccc(CNc2ccc(O)cc2)cc1` has an IC50 of 45.1 µM. In the case of `CCOc1ccccc1CNc1ccc(O)cc1`, the IC50 is reported as 46.7 µM. For `CC1=C(O)C(=O)C=C2C1=CC=C1C2(C)CCC2(C)C3CC(C)(C(=O)O)CCC3(C)CCC12C` (centres undefined), the IC50 was 45.7 µM. With `COc1ccc(N=C2C(=S)N(c3ccc(OC)cc3)C(=NS(=O)(=O)c3ccccc3)N2c2ccccc2)cc1` the IC50 was > 80 µM (inactive). With `O=c1c2ccccc2sn1-c1cc(S(=O)(=O)N2CCOCC2)ccc1N1CCCC1` the IC50 was 12.5 µM. Molecule `C=CCN=c1scc(-c2ccco2)n1/N=C/c1ccc(O)c(O)c1O` has an IC50 of 58.3 µM. In the case of `O=C1C=CC(=O)N1CCCCCCCCCCN1C(=O)C=CC1=O`, the IC50 is reported as > 80 µM (inactive). With `OCc1ccccc1SSc1ccccc1CO` the IC50 was 53.1 µM. With `C=CCSc1nc2sc3c(c2c(=O)n1CC)CCc1ccccc1-3` the IC50 was > 80 µM (inactive). In the case of `CN(C)C=Nc1ccc2nc3c(cc2c1)[nH]c1ccccc13`, the IC50 is reported as > 80 µM (inactive). In the case of `CC1CCc2c(nc3sc4c(c3c2N)CCCC4)C1` (centres undefined), the IC50 is reported as > 80 µM (inactive). `Cc1ccc(/C=C/C(=O)Nc2ccc([N+](=O)[O-])c(NC(=O)/C=C/c3ccc(C)o3)c2)o1` was tested, and the IC50 was > 80 µM (inactive). With `O=c1[nH]nc(CNc2ccc(O)cc2)c2ccccc12` the IC50 was > 80 µM (inactive). `COc1cc(N=Cc2c(CO)cnc(C)c2O)cc(OC)c1OC` showed an IC50 of 30.5 µM. For `CCOC(=O)c1ccc(/[N+]([O-])=C/c2ccccc2)cc1`, the IC50 was > 80 µM (inactive). For `CCNc1ccccc1CP(=O)(c1ccccc1)c1ccccc1O` (centres undefined), the IC50 was > 80 µM (inactive). `CCN1CCCC1CNC(=O)c1ccc2c(c1)NC(=O)/C(=C\c1ccccc1F)S2` (centres undefined) gave an IC50 of 8.64 µM. `CCN(CC)c1ccc(NC(=O)c2cccc(C)c2)cc1S(=O)(=O)Nc1ccccc1OC` showed an IC50 of 31.3 µM. Work on `CCOc1ccc(S(=O)(=O)Nc2cc(SCC(=O)O)c(O)c3ccccc23)cc1` yielded an IC50 of 48.2 µM. In the case of `COC1(OC)C=CC(=O)C=C1NC(=O)c1ccccc1OC(C)=O`, the IC50 is reported as > 80 µM (inactive). `COc1cc(N=c2ssnc2Cl)cc(OC)c1OC` was tested, and the IC50 was 34 µM. With `Cc1nnc(SCC(=O)c2cc(C)n(-c3ccc4c(c3)OCO4)c2C)s1` the IC50 was > 80 µM (inactive). With `CCNc1cc2c(cc1O)CCC1C2CCC2(C)C(O)CCC12` (centres undefined) the IC50 was 35.7 µM. For `Cc1ccc(/C=C/C(=O)NCC2COc3ccccc3O2)o1` (centres undefined), the IC50 was > 80 µM (inactive). For `COc1ccc(CCn2c(NN=C(C)C)nc3c2c(=O)[nH]c(=O)n3C)cc1`, the IC50 was > 80 µM (inactive). `[O-]/[N+](=C/c1cccnc1)c1ccc(Br)cc1` gave an IC50 of 77.1 µM. In the case of `Cc1[nH]c(=S)c(C#N)c(C)c1CCC#N`, the IC50 is reported as > 80 µM (inactive). For `COc1ccc(CCn2c(NN=C3CCCCC3)nc3c2c(=O)[nH]c(=O)n3C)cc1`, the IC50 was > 80 µM (inactive). In the case of `COc1cc(CNc2ccc3[nH]c(=O)[nH]c3c2)ccc1OCc1ccccc1`, the IC50 is reported as > 80 µM (inactive). With `Oc1ccc(/C=N/N=C(c2ccccc2)c2ccccc2)c(O)c1O` the IC50 was 54.6 µM. In the case of `CN(C)c1cccc2c1c(NC(=O)c1ccc(F)cc1)nn2C`, the IC50 is reported as > 80 µM (inactive). Work on `O=S(=O)(Nc1cc(Sc2ncn[nH]2)c(O)c2ccccc12)c1ccccc1` yielded an IC50 of 23.9 µM. In the case of `COc1ccc(C(=O)c2c(C(F)(F)F)oc3c2C(=O)c2ccccc2C3=O)cc1`, the IC50 is reported as > 80 µM (inactive). With `CCc1nnc(NC(=O)c2ccc(Cl)nc2)s1` the IC50 was > 80 µM (inactive). Work on `CCOC(=O)c1c(C)n(-c2ccc(C)cc2)c2c(C(C(C)=O)C(=O)O)c(Br)c(O)c(O)c12` (centres undefined) yielded an IC50 of 57.4 µM. Molecule `O=C(O)CSc1cc(NS(=O)(=O)c2ccc(Cl)cc2)c2ccccc2c1O` has an IC50 of 46.3 µM. In the case of `CC1=C(C)CS(=O)N(S(=O)(=O)c2ccc(Cl)cc2)C1` (centres undefined), the IC50 is reported as > 80 µM (inactive). `COc1cc(N=c2ssnc2Cl)cc(OC)c1` was tested, and the IC50 was > 80 µM (inactive). `Oc1ccc(C2C[C@H]3CC[C@@H]2C3)cc1O` (some centres undefined) gave an IC50 of 48.6 µM. For `Clc1ccc(N=c2ssnc2Cl)nc1`, the IC50 was > 80 µM (inactive). In the case of `COc1cc(NCc2ccccc2)c2ncn(Cc3ccccc3)c2c1`, the IC50 is reported as > 80 µM (inactive). With `CC(=O)Nc1cc(OC(C)=O)c2nonc2c1OC(C)=O` the IC50 was > 80 µM (inactive). In the case of `CC(=O)Nc1ccc2sn(-c3ccccc3)c(=O)c2c1`, the IC50 is reported as 24.1 µM. `Cc1ccc(-c2c(C(=O)N/N=C/c3ccc(C)o3)nnn2-c2nonc2N)cc1` showed an IC50 of 51.3 µM. In the case of `CN1C(=O)C(N=Nc2ccc([N+](=O)[O-])cc2)SC1=S` (centres undefined), the IC50 is reported as > 80 µM (inactive). In the case of `COC1=C(Br)C(=O)c2nc(C)ccc2C1=O`, the IC50 is reported as > 80 µM (inactive). `CN=c1scc(C)n1/N=C/c1ccc(O)c(O)c1O` was tested, and the IC50 was 24.8 µM. `O=C(CNC(=O)c1ccco1)OCC(=O)c1ccc([N+](=O)[O-])cc1` gave an IC50 of 50.9 µM. Molecule `COC(=O)[C@H](C)NC(=O)c1cc2c(cn1)[nH]c1ccccc12` has an IC50 of 51 µM. `COc1cc(CN2CCCC(C(=O)c3ccc4c5c(cccc35)CC4)C2)cc(OC)c1O` (centres undefined) gave an IC50 of 28.4 µM. In the case of `COc1ccc2nc3cc(Cl)ccc3c(Nc3ccc(O)c(CN4CCN(C)CC4)c3)c2c1`, the IC50 is reported as > 80 µM (inactive). `CN1CC[C@@]2(C)c3cc(O)ccc3N(C)[C@@H]12` gave an IC50 of 46.7 µM. In the case of `CCC(C)c1ccccc1OCCn1ccnc1` (centres undefined), the IC50 is reported as > 80 µM (inactive). For `CC1(OC(=O)C2CCCC2)C(=O)C=C2C=C(c3ccsc3)N(Cc3ccc4c(c3)OCO4)C=C2C1=O` (centres undefined), the IC50 was > 80 µM (inactive). In the case of `CCCN1CCc2cc(O)cc3c2[C@H]1Cc1ccc(O)c(O)c1-3`, the IC50 is reported as > 80 µM (inactive). `COc1cccc(-c2c(C(=O)N/N=C/c3ccc(C)o3)nnn2-c2nonc2N)c1` showed an IC50 of 12.7 µM. For `O=C1C(c2cc(=O)c3ccccc3[nH]2)=C(O)c2ccccc21`, the IC50 was > 80 µM (inactive). With `Cc1ccc2nc(SCC(=O)N/N=C/c3ccco3)cc(C)c2c1` the IC50 was > 80 µM (inactive). With `O=C(O)c1cccc(N2C(=O)C=CC2=O)c1` the IC50 was 55.2 µM. `CN(C)c1ccc2nc3ccc(=O)cc-3sc2c1` was tested, and the IC50 was > 80 µM (inactive). For `N#Cc1ccc(N=c2ssnc2Cl)cc1`, the IC50 was 53.7 µM. With `Cc1nc2ccc(Nc3nc4cc(S(=O)(=O)N5CCOCC5)ccc4o3)cc2s1` the IC50 was > 80 µM (inactive). For `Cc1cc(C)c(S(=O)(=O)Nc2cc(SCC(=O)O)c(O)c3ccccc23)cc1C`, the IC50 was 41.4 µM. For `COc1ccc(-c2cn3cc(C)ccc3n2)cc1Br`, the IC50 was > 80 µM (inactive). `O=C(O)c1cc(N2C(=O)C=CC2=O)cc(N2C(=O)C=CC2=O)c1` gave an IC50 of 19.6 µM. For `CC1(OC(=O)C2CCCC2)C(=O)C=C2C=C(c3ccsc3)N(CCc3c[nH]c4ccccc34)C=C2C1=O` (centres undefined), the IC50 was > 80 µM (inactive). `O=c1ccsn1Cc1ccccc1` gave an IC50 of 57.9 µM. For `O=C(CCC(=O)OCC(=O)c1ccc([N+](=O)[O-])cc1)Nc1ccccc1Cl`, the IC50 was > 80 µM (inactive). In the case of `O=C(Cn1sc2ccccc2c1=O)Nc1ccccc1`, the IC50 is reported as 14.3 µM. With `COc1cc(C(=O)O/N=C2\C=CC(=O)C=C2C)cc(OC)c1OC` the IC50 was > 80 µM (inactive). `C=CCOc1c(Cl)cc(CNc2ccc3[nH]c(=O)[nH]c3c2)cc1OC` was tested, and the IC50 was > 80 µM (inactive). For `Cc1ccc(C(=O)/C=C/C(=O)c2ccc(C)cc2)cc1`, the IC50 was > 80 µM (inactive). With `O=C(NCCCN1CCOCC1)c1sc2cc([N+](=O)[O-])ccc2c1Cl` the IC50 was 38.5 µM. For `CCOC(=O)C1CCCN(C(=O)Cn2sc3nc(C)cc(C)c3c2=O)C1` (centres undefined), the IC50 was 50.7 µM. In the case of `CCN=c1scc(C)n1/N=C/c1ccc(O)c(O)c1O`, the IC50 is reported as 39.2 µM. `Cc1ccc(Nc2cc(C)c(O)c(C)c2)cc1` was tested, and the IC50 was > 80 µM (inactive). Molecule `ClC(Cl)(c1nnnn1-c1ccccc1)c1nnnn1-c1ccccc1` has an IC50 of 61.2 µM. `O=C1C(=Cc2cccc(O)c2O)SC(=S)N1CCCN1CCOCC1` gave an IC50 of 28.2 µM. Work on `CNS(=O)(=O)c1ccc(-c2ccc(C=C3C(=O)NC(=O)NC3=O)o2)cc1` yielded an IC50 of 33.6 µM. For `Cc1nc(COC(=O)c2cc(O)c3ccccc3c2O)cs1`, the IC50 was > 80 µM (inactive). `COC(=O)[C@H](CCSC)NC(=O)c1cc2c(cn1)[nH]c1ccccc12` was tested, and the IC50 was 20.2 µM. For `CC(=O)OCC1(C)CN(c2ccccc2)NC1=O` (centres undefined), the IC50 was > 80 µM (inactive). In the case of `Cc1ccc(/C=C/C(=O)NCc2ccc(S(N)(=O)=O)cc2)o1`, the IC50 is reported as > 80 µM (inactive). With `C=CCN1C=C2C(=O)C(C)(OC(=O)CCC(=O)OC)C(=O)C(Br)=C2C=C1c1ccc(OC)cc1` (centres undefined) the IC50 was > 80 µM (inactive). Molecule `COc1ccc(CCn2c(NN)nc3c2c(=O)[nH]c(=O)n3C)cc1` has an IC50 of 22.4 µM. For `Brc1cc2[nH]cnc2c2ccccc12`, the IC50 was > 80 µM (inactive). `O=C(Nc1sc2c(c1C(=O)O)CCC2)c1ccc(F)cc1` was tested, and the IC50 was 41.3 µM. `Cc1ccc(S(=O)(=O)C=CS(=O)(=O)c2ccc(C)cc2)cc1` was tested, and the IC50 was 41.2 µM. For `O=c1c2cc(C(F)(F)F)ccc2sn1-c1ccccc1`, the IC50 was 20.3 µM. For `[O-][N+](=Cc1ccccc1)c1ccc(Cl)cc1`, the IC50 was > 80 µM (inactive). `C=CCOc1ccc(CNc2ccc3[nH]c(=O)[nH]c3c2)cc1OC` was tested, and the IC50 was > 80 µM (inactive). `O=c1c2ccccc2sn1-c1ccccc1F` showed an IC50 of 15.5 µM. `Cc1cccc(NC2=C(NC(=O)c3ccccc3)C(=O)c3ccccc3C2=O)c1` was tested, and the IC50 was > 80 µM (inactive). For `Cc1ccc(S(=O)c2ccc([N+](=O)[O-])c3nonc23)cc1` (centres undefined), the IC50 was > 80 µM (inactive). With `COc1ccccc1NS(=O)(=O)c1cc(NC(=O)c2ccc(Cl)nc2)ccc1N1CCCC1` the IC50 was 32.1 µM. `CC(C)(C)c1ccc(O)c(O)c1` gave an IC50 of 48.6 µM. With `Nc1cc(N)c(OCC(F)(F)F)cc1OCC(F)(F)F` the IC50 was > 80 µM (inactive). `CN(C)c1cccc2c1c(NC(=O)c1ccc(Cl)cc1)nn2C` was tested, and the IC50 was > 80 µM (inactive). In the case of `CC1=NOC(=O)/C1=C\c1ccc(-c2ccccc2Br)o1`, the IC50 is reported as > 80 µM (inactive). For `COc1ccc(C(=O)Nc2cc(Cl)ccc2C(=O)O)cc1`, the IC50 was 17.7 µM. With `COC(=O)CCC(=O)OC1(C)C(=O)C2=CN(c3ccc(OC)cc3)C(c3ccc(OC)cc3)=CC2=C(Br)C1=O` (centres undefined) the IC50 was > 80 µM (inactive). `CC(=O)OCCCNc1cc(Sc2nc3ccccc3s2)c2nonc2c1[N+](=O)[O-]` was tested, and the IC50 was 14.9 µM. With `O=[N+]([O-])c1cccc(SSc2cccc([N+](=O)[O-])c2)c1` the IC50 was 71.5 µM. With `C(=N\Nc1nc2ccccc2[nH]1)/c1ccccn1` the IC50 was > 80 µM (inactive). For `Cc1noc(C(=O)Nc2sc3c(c2C#N)CCC3)c1Cl`, the IC50 was > 80 µM (inactive).
